Data published in patent publication US20260109725A1, “MACROLIDE SENOLYTIC COMPOUNDS” (LUNELLA BIOTECH, INC., priority 2022, published 2026).
In brackets after ≈: the same amount, converted by molar mass.

Legend:
[1] = system: MRC-5 cells treated with BrdU (senescent fibroblasts); experiment: SRB assay, BrdU-treated (senescent) MRC-5 cells; format: cell-based, human
Description: (§1) For example, in one assay bromodeoxyuridine (5-bromo-2′-deoxyuridine), also known as BrdU, was used to induce senescence in a cell population. BrdU is an analog of the nucleoside thymidine commonly used to identify proliferating cells. BrdU induces controlled DNA damage, and drives cells towards senescence with high efficiency. In the BrdU assay, normal fibroblasts are subjected to prolonged culture (8-days) in the presence of BrdU at 100 μM to induce controlled DNA-damage and senescence. […] Senolytic activity was assessed using the sulforhodamine B assay, also known in the art as the SRB assay. This assay measures the amount of protein remaining attached to the tissue-culture dishes, and is a surrogate marker for cell viability.
(§2) FIG. 1 compares SRB assay results for different concentrations of Azithromycin (100 µM and 50 μM) and Compound [I] (100 μM and 50 μM) of the present approach, on both control MRC-5 cells and MRC-5 cells treated with BrdU. […] (labelled as “Azi-Gal” in FIG. 1) for another 5 days. After that, the SRB assay was performed to determine the effects of the drug on cell viability, using normal MRC-5 cells as the control. […] However, at 50 μM Azithromycin had no effect on either the control cells or senescent cells.
(§3) BrdU Assay: Cells were plated into 24-well plates. Next day, half of the plate was treated with 100 μM of BrdU while control wells were treated with vehicle only (DMSO) and incubated for 8 days at 37° C. in a 5% CO2 humidified atmosphere. After 8 days of BrdU treatment cells were treated with various test compounds or drugs (e.g., azithromycin, roxithromycin, telithromycin, erythromycin, etc.) for another 3-5 days. BrdU or vehicle treatments were continued during the drug treatments as well.
(§4) Sulphorhodamine B assay: After the incubation of the plates cell viability was measured by Sulphorhodamine B assay (SRB). The assay is based on the measurement of cellular protein contents. Cells were fixed with 10% Trichloroacetic acid (TCA) for 1 hour at […], and were dried overnight at room temperature. Then, plates were incubated with SRB for 30 min, washed twice with 1% acetic acid and air dried for at least 1 h. Finally, the protein-bound dye was dissolved in a 10 mM Tris, pH 8.8, solution and read using a plate reader at 540-nm.

[2] = system: Haemophilus influenzae ATCC 49247; experiment: in vitro broth microdilution assay (MIC); format: cell-based; conditions: ATCC49247; Haemophilus influenzae ATCC 49247, QC strain
Description: (§5) This is advantageous because use of the compounds of the present approach as therapeutic agents will have less of an impact on the development of antibiotic resistance. For example, embodiments of the present approach were screened for antibiotic activity, using the in vitro broth microdilution assay. […] The assay conditions, described by the Clinical and Laboratory Standards Institute were used for preparation of the inoculum, growth medium, and end point reading. Test substance was dissolved in 100% DMSO, suspended completely by vortexing, diluted by 2-fold serial titrations in the same vehicle, for a total of 11 test concentrations. A 4 μL aliquot of each dilution was added to 196 μL of broth medium seeded with the organism suspension in wells of a 96 well plate (bacterial count: 2-8×10(5) colony forming units/mL final). The final volume was 200 μL in each well and the final DMSO concentration was 2 percent. Test concentrations were 0.1 to 100 μM. Following incubation, the test plates were visually examined and wells were scored for growth or complete growth inhibition to define the minimum inhibitory concentration. Each test substance was evaluated with replicates. Vehicle controls and an active reference agent were used as blank and positive controls. Note that MRSA represents methicillin-resistant Staphylococcus aureus, and VRE represents vancomycin resistant Enterococcus.

[3] = system: Escherichia coli ATCC 25922; experiment: in vitro broth microdilution assay (MIC); format: cell-based; conditions: ATCC25922; Escherichia coli ATCC 25922, QC strain
Description: as §5

[4] = system: Enterococcus faecalis ATCC 29212; experiment: in vitro broth microdilution assay (MIC); format: cell-based; conditions: ATCC29212; Enterococcus faecalis ATCC 29212, QC strain
Description: as §5

[5] = system: Streptococcus pneumoniae ATCC 49619; experiment: in vitro broth microdilution assay (MIC); format: cell-based; conditions: ATCC49619; Streptococcus pneumoniae ATCC 49619, QC strain
Description: as §5

[6] = system: Klebsiella pneumoniae ATCC 43816; experiment: in vitro broth microdilution assay (MIC); format: cell-based; conditions: ATCC43816
Description: as §5

[7] = system: Staphylococcus aureus ATCC 33591 MRSA; experiment: in vitro broth microdilution assay (MIC); format: cell-based
Description: as §5

[8] = system: Pseudomonas aeruginosa ATCC 27853; experiment: in vitro broth microdilution assay (MIC); format: cell-based; conditions: ATCC27853; Pseudomonas aeruginosa ATCC 27853, QC strain
Description: as §5

[9] = system: Escherichia coli JW5503 DEL-tolC; experiment: in vitro broth microdilution assay (MIC); format: cell-based; conditions: JW5503DELTOLC
Description: as §5

[10] = system: Acinetobacter baumannii ATCC 17978; experiment: in vitro broth microdilution assay (MIC); format: cell-based; conditions: ATCC17978
Description: as §5

[11] = system: Staphylococcus aureus ATCC 29213; experiment: in vitro broth microdilution assay (MIC); format: cell-based; conditions: ATCC29213; Staphylococcus aureus ATCC 29213, QC strain
Description: as §5

[12] = system: Enterococcus faecium ATCC 700221 VanA VRE; experiment: in vitro broth microdilution assay (MIC); format: cell-based
Description: as §5

[13] = system: control MRC-5 cells (normal lung fibroblasts); experiment: SRB assay, control (normal) MRC-5 cells; format: cell-based, human
Description: as §1, §2, §3, §4

MCF-7 cells = experiment: mammosphere formation assay (3D anchorage independent growth); format: cell-based, human
Description: The compounds disclosed herein may also be used as therapeutic agent to selectively eradicate CSCs for treating and/or preventing tumor recurrence and/or metastasis. […] This assay measures the amount of residual protein that adheres to tissue culture dishes and is a surrogate marker of cell viability.
3D Anchorage Independent Growth Assay: This assay is also referred to as the mammosphere formation assay. A single-cell suspension was prepared using enzymatic, and manual disaggregation (25-g needle). Then, cells were plated at a density of 500 cells/cm^2 in mammosphere medium (DMEM-F12+1X B-27 Plus Supplement+20 ng/ml EGF+Pen/Strep) under non-adherent conditions, in culture dishes pre-coated with (2-hydroxyethylmethacrylate) (poly-HEMA, Sigma Aldrich Inc.), called “mammosphere plates.” Cells were grown for 5 days and maintained in a humidified incubator at 37° C. After 5 days of culture, 3D-mammospheres >50 μm were counted using an eye piece (“graticule”), and the percentage of cells plated which formed spheres was calculated and is referred to as percent mammosphere formation, and was normalized to one (1=100% MFE). 3D mammosphere formation efficiency (MFE) was analyzed in both the ATP-low and ATP-high sub-populations of cells. All 3D mammosphere experiments were performed in triplicate, at least 3 times independently.

[14] = SRB, control vs BrdU-treated MRC5

CC[C@H]1OC(=O)[C@H](C)[C@@H](O[C@H]2C[C@@](C)(OC)[C@@H](O)[C@H](C)O2)[C@H](C)[C@@H](O[C@@H]2O[C@H](C)C[C@H](N(C)C)[C@H]2O)[C@](C)(O)C[C@@H](C)CN(C)[C@H](C)[C@@H](O)[C@]1(C)O [Azithromycin, reference compound]
effect on senescent cells (SRB) ([1]; 50 μM, 5 days after 8 days BrdU): no effect
effect on senescent MRC-5 fibroblasts (SRB) ([1]; 100 μM, 5 days after 8 days BrdU): selectively killed
MIC [2]: 3.12 µM (≈ 2.34 µg/mL)
MIC [3]: 6.25 µM (≈ 4.68 µg/mL)
MIC [4]: 6.25 µM (≈ 4.68 µg/mL)
MIC [5]: 0.39 µM (≈ 0.292 µg/mL)
MIC [6]: 25 µM (≈ 18.7 µg/mL)
MIC [7]: > 100 µM
MIC [8]: 100 µM (≈ 74.9 µg/mL)
MIC [9]: 1.56 µM (≈ 1.17 µg/mL)
MIC [10]: 6.25 µM (≈ 4.68 µg/mL)
MIC [11]: 1.56 µM (≈ 1.17 µg/mL)
MIC [12]: > 100 µM
effect on control cells (SRB) ([13]; 50 μM, 5 days): no effect
effect on viability of normal MRC-5 lung fibroblasts (SRB) ([13]; 100 μM, 5 days): no effect
inhibition of MCF-7 cells compared to the control (mammosphere formation) (MCF-7 cells; 200 μM): about 30%
IC50 (MCF-7 cells; Homo sapiens, MCF7): 118 µM

CC[C@H]1OC(=O)[C@H](C)[C@@H](O[C@@H]2C[C@@](C)(OC)[C@@H](O)[C@H](C)O2)[C@H](C)[C@@H](O[C@@H]2O[C@H](C)C[C@H](N(C)C)[C@H]2OC(=O)CCC(=O)OCc2ccc(O[C@@H]3O[C@H](COC(C)=O)[C@H](OC(C)=O)[C@H](OC(C)=O)[C@H]3OC(C)=O)c([N+](=O)[O-])c2)[C@](C)(O)C[C@@H](C)CN(C)[C@H](C)[C@@H](O)[C@]1(C)O [Compound [III], O4-[(2S,3R,4S,6R)-4-(dimethylamino)-2-[[(2R,3S,4R,5R,8R,10R,11R,12S,13S,14R)-2-ethyl-3,4,10-trihydroxy-13-[(2S,4R,5S,6S)-5-hydroxy-4-methoxy-4,6-dimethyl-tetrahydropyran-2-yl]oxy-3,5,6,8,10,12,14-heptamethyl-15-oxo-1-oxa-6-azacyclopentadec-11-yl]oxy]-6-methyl-tetrahydropyran-3-yl] O1-[[3-nitro-4-[(2S,3R,4S,5S,6R)-3,4,5-triacetoxy-6-(acetoxymethyl)tetrahydropyran-2-yl]oxy-phenyl]methyl]butanedioate]
potency relative to the parent compound, Azithromycin (SRB) [1, 14]: about half
senolytic activity compared to Azithromycin and Compound [I] [1, 14]: significantly less senolytic activity

CC[C@H]1OC(=O)[C@H](C)[C@@H](O[C@@H]2C[C@@](C)(OC)[C@@H](O)[C@H](C)O2)[C@H](C)[C@@H](O[C@@H]2O[C@H](C)C[C@H](N(C)C(=O)OCc3ccc(O[C@@H]4O[C@H](COC(C)=O)[C@H](OC(C)=O)[C@H](OC(C)=O)[C@H]4OC(C)=O)c([N+](=O)[O-])c3)[C@H]2O)[C@](C)(O)C[C@@H](C)CN(C)[C@H](C)[C@@H](O)[C@]1(C)O [Compound [IV], [(2R,3S,4S,5R,6S)-3,4,5-triacetoxy-6-[4-[[[(2S,3R,4S,6R)-2-[[(2R,3S,4R,5R,8R,10R,11R,12S,13S,14R)-2-ethyl-3,4,10-trihydroxy-13-[(2S,4R,5S,6S)-5-hydroxy-4-methoxy-4,6-dimethyl-tetrahydropyran-2-yl]oxy-3,5,6,8,10,12,14-heptamethyl-15-oxo-1-oxa-6-azacyclopentadec-11-yl]oxy]-3-hydroxy-6-methyl-tetrahydropyran-4-yl]-methyl-carbamoyl]oxymethyl]-2-nitro-phenoxy]tetrahydropyran-2-yl]methyl acetate]
selectivity for senescent cells over normal, non-senescent cells (SRB) ([1]; control vs BrdU-treated MRC5): no little selectivity

CC[C@H]1OC(=O)[C@H](C)[C@@H](O[C@@H]2C[C@@](C)(OC)[C@@H](O)[C@H](C)O2)[C@H](C)[C@@H](O[C@@H]2O[C@H](C)C[C@H](N(C)C)[C@H]2OC(=O)OCc2ccc(O[C@@H]3O[C@H](COC(C)=O)[C@H](OC(C)=O)[C@H](OC(C)=O)[C@H]3OC(C)=O)c([N+](=O)[O-])c2)[C@](C)(O)C[C@@H](C)C(=O)[C@H](C)[C@@H](O)[C@]1(C)O [Compound [VI], 2R,3S,4S,5R,6S)-3,4,5-triacetoxy-6-[4-[[(2S,3R,4S,6R)-4-(dimethylamino)-2-[[(3R,4S,5S,6R,7R,9R,11R,12R,13S,14R)-14-ethyl-7,12,13-trihydroxy-4-[(2S,4R,5S,6S)-5-hydroxy-4-methoxy-4,6-dimethyl-tetrahydropyran-2-yl]oxy-3,5,7,9,11,13-hexamethyl-2,10-dioxo-oxacyclotetradec-6-yl]oxy]-6-methyl-tetrahydropyran-3-yl]oxycarbonyloxymethyl]-2-nitro-phenoxy]tetrahydropyran-2-yl]methyl acetate]
effect on the senescent cells (SRB) ([1]; BrdU-treated MRC5): little effect
preference for normal, non-senescent control cells (SRB) ([13]; compared to Roxithromycin and Erythromycin): preference for the normal, non-senescent control cells
